According to US10738001B2, “Hydrofluoroolefins and methods of using same” (priority 2015, dated 2020):
Like-named read-outs stand apart in the source and are kept apart here.

How the values were obtained:
[1] = Log KOW (octanol/water partition coefficient) by HPLC, OECD Method 117; assay type: physicochemical
Description: (§1) In these Examples, Log KOWs, (octanol/water partition coefficients), were determined by HPLC using the method described in OECD Method 117. Atmospheric lifetimes were experimentally determined using a relative rate method to determine the hydroxyl radical rate constant.

[2] = Atmospheric lifetime by relative rate method (hydroxyl radical rate constant); assay type: physicochemical
Description: as §1

rats = assay: toxicity screening study in rats, 4 Hr Inhalation LC50

Compound | chromatographic logP [1] | atmospheric lifetime [2] [years] | chromatographic logP ([1]; octanol/water, HPLC, OECD Method 117, average value for the E/Z product mixtures of Examples 1-3, read-out: Log KOW (octanol/water partition coefficient measured by HPLC)) | 4 Hr Inhalation LC50 (rats) | Log KOW (octanol/water partition coefficient measured by HPLC) [1] | Log KOW (octanol/water partition coefficient measured by HPLC) ([1]; HPLC, OECD Method 117, average value for the E/Z product mixtures of Examples 1-3)
F/C(=C\C(F)(F)F)N(C(F)(F)F)C(F)(F)F [Example 3, (E&Z)-1,3,3,3-tetrafluoro-N,N-bis(trifluoromethyl)prop-1-en-1-amine] | 4.12 | 1.3 | – | – | – | –
C=C(F)N1C(F)(F)C(F)(F)OC(F)(F)C1(F)F [Example 6, 2,2,3,3,5,5,6,6-octafluoro-4-(1-fluorovinyl)morpholine] | – | 0.095 | 4.33 | > 10,000 ppm | – | –
4-(E&Z)-(1,2-difluorovinyl)-2,2,3,3,5,5,6,6-octafluoromorpholine [Example 4] | – | 0.078 | – | > 10,000 ppm | 4.31 | –
FC=C(F)N(C(F)(F)C(F)(F)F)C(F)(F)C(F)(F)C(F)(F)F [Example 8, N-(E&Z)-(1,2-difluorovinyl)-1,1,2,2,3,3,3-heptafluoro-N-(perfluoroethyl)propan-1-amine] | – | – | – | – | 4.97 | –
FC(=CC(F)(F)F)N(C(F)(F)F)C(F)(F)C(F)(F)F [Example 1, (E&Z)-1,3,3,3-tetrafluoro-N-(1,1,2,2,2-pentafluoroethyl)-N-(trifluoromethyl)prop-1-en-1-amine] | – | – | – | – | – | 4.57
FC(=CC(F)(F)F)N1C(F)(F)C(F)(F)OC(F)(F)C1(F)F [Example 2] | – | 0.89 | – | > 10,390 ppm | 4.80 | –
